US20040058861A1, “Use of lipopeptides in immunotherapy of HIV+ individuals” (priority 2000, published 2004)
Where a SMILES comes first, the peptide text is derived from it. The star is where a group is joined. Palmitoyl = CCCCCCCCCCCCCCCC(=O)*

Test: Solubilization of each lyophilized lipopeptide in pure acetic acid
Format: physicochemical
Settings: pure acetic acid added to obtain 12.5 mg net/ml; before sonication
Description: Each lipopeptide is then solubilized by adding pure acetic acid to obtain a concentration of 12.5 mg net/ml. […] If the aggregates are not dissociated, the sonication is continued, separating each period of sonication (30 s) by 30 s gaps of no sonication, during which the bottles are shaken manually. At the end of the sonication step, the suspensions should be homogeneous (but will not be clear). Each lipopeptide is then diluted by adding water for injectable preparation. If the solution obtained is not totally clear, steps of heating in a water bath (at 40° C.±2° C.) and sonication (1 min maximum) may be carried out, separating them by 30 s gaps of no sonication. The final preparation is obtained by mixing the lipopeptides in equal weight amounts, adding them in the following order (the most hydrophilic to the most hydrophobic lipopeptides):

CCCCCCCCCCCCCCCC(=O)NCCCC[C@H](NC(=O)[C@H](CC(C)C)NC(=O)[C@H](CCCCN)NC(=O)[C@H](Cc1ccc(O)cc1)NC(=O)[C@H](CC(C)C)NC(=O)[C@H](Cc1c[nH]c2ccccc12)NC(=O)CNC(=O)[C@H](Cc1ccccc1)NC(=O)[C@@H](NC(=O)[C@H](CC(C)C)NC(=O)[C@@H]1CCCN1C(=O)[C@H](Cc1ccc(O)cc1)NC(=O)[C@H](CCCNC(=N)N)NC(=O)[C@@H](NC(=O)CNC(=O)[C@@H]1CCCN1C(=O)CNC(=O)[C@@H]1CCCN1C(=O)[C@@H](NC(=O)[C@H](Cc1ccc(O)cc1)NC(=O)[C@H](CC(N)=O)NC(=O)[C@H](CCC(N)=O)NC(=O)[C@H](Cc1c[nH]c2ccccc12)NC(=O)[C@H](CC(=O)O)NC(=O)[C@@H]1CCCN1C(=O)[C@H](Cc1ccccc1)NC(=O)[C@H](Cc1ccc(O)cc1)NC(=O)CNC(=O)[C@H](CCC(N)=O)NC(=O)[C@@H](NC(=O)[C@@H](N)Cc1c[nH]cn1)[C@@H](C)O)[C@@H](C)O)C(C)C)[C@@H](C)O)C(N)=O [Nef 116] (H-HTQGYFPDWQNYTPGPGVRYPLTFGWLYKLK(Palmitoyl)-NH2; N-terminus assumed)
solubility in pure acetic acid: soluble
